According to US4376789A, “Surfactants which are polyhydric alcohol partial esters of adducts of maleic anhydride with an unsaturated carboxylic acid” (Grillo-Werke AG, priority 1980, dated 1983):

Tested on: eye
Assay: Eye irritation test according to Draize
Assay type: in vivo
Excerpt: The good compatibility of the partial esters according to the invention with skin and mucous membranes is evident from the following investigations. In Table 1, the results of an eye irritation test, according to Draize, for the products of the invention are compared with those of anionic surfactants known to be acceptable dermatologically. It should be noted that substantially higher concentrations of the active products of the invention, than of the prior art compounds, were used in the test.
The Draize test was performed according to the provisions of the Appraisal of the Safety of Chemicals in Food, Drugs and Cosmetics, published by the United States Food and Drug Administration in 1959. According to this method, appraisal points are assigned as follows: […]

Compound	Evaluation points according to Draize score (in vivo) [Points]	Evaluation range (Draize) (in vivo)	Evaluation points according to Draize score (concentration % active substance: 100 (Examples 1, 3, 4), 65 (Example 2), 50 (Example 5, Na lauryl ether sulfate, undecylic acid semi-ester Na salt), 40 (tallow coco fat alcohol sulfate Na salt), 35 (ammonium lauryl sulfate)) [Points]
Tallow coco fat alcohol sulfate Na salt	24.3	Slightly irritant	–
CCCCCCCCCCCCOS(=O)(=O)O.N [Ammonium lauryl sulfate]	–	–	12.9
CCCCCCCCCCC(=O)NCCOC(=O)CC(C(=O)[O-])S(=O)(=O)O.CCCCCCCCCCC(=O)NCCOC(=O)CC(C(=O)[O-])S(=O)(=O)O.[Na+].[Na+] (stereo not shown) [Na salt of undecylic acid monethanolamide sulfo succinic acid semi-ester]	19.6	Slightly irritant	–
Na lauryl ether sulfate	14.2	Slightly irritant	–
